Results on four molecules are retold here after US5703069A, “Method for inhibiting and controlling viral growth” (Warner-Lambert Company, priority 1996, dated 1997).

One data set concerns herpesvirus. As to the kind of experiment: SGC anti-herpesvirus assay. Conditions: read-out: IC50 Inhibitory Activity (SGC). In kind it is cell-based.
In a further data set the test system is wild type HSV-1. As to the kind of experiment: PRA (plaque reduction assay with wild type HSV-1). In kind it is cell-based. Conditions: read-out: IC50 Inhibitory Activity (PRA). On the technique in general: Plaques are areas of infected cells; plaque reduction assays count them against a control.
For the next data set, the system named is Vero cells. The following applies: monkey, 120 h. As to the method: This screen was designed to identify compounds which inhibit HSV-1 in phases of its life cycle from adsorption and penetration through late gene expression. The primary screen, AVUS1, involves adding single compounds to a monolayer of Vero cells to a final concentration of 25 μg/mL, then infecting the cells with a recombinant HSV-1, Us3::Tn5-lacZ. This virus contains an insertion of a lacZ gene driven by a viral late promoter in the US3 protein kinase gene of HSV-1. The infection is allowed to proceed for 20 hours, then the cells are lysed with a solution of Triton X-100 and CPRG in "Z" buffer and assayed for β-galactosidase activity. The positive control used is solvent alone without compound, which corresponds to 0% inhibition, and the negative control used is either no virus added to the wells or 0.5% Triton X-100 added to the wells, which corresponds to 100% inhibition. Percent inhibition of a compound is then calculated using these positive and negative controls. […] In AVUS3, the test compound is dissolved in MeOH at 20 mM. A titration of the compound is then assayed in both the same β-galactosidase virus replication inhibition assay and a 5-day XTT toxicity assay. […]

The test system of data set [1] is OM-10.1 cells. The data set can be described thus: inhibition of HIV-1 activation / HIV expression in chronically infected OM-10.1 cells (TNF-α induced). The format is cell-based, human immunodeficiency virus type 1 (HIV-1). Conditions: Human immunodeficiency virus 1. The text has this: The cellular pathways involved in mediating the activating signal from the plasma membrane to the integrated virus, resulting in HIV-1 expression, are much less clear. Recently, the development of a reliable and simple system for evaluating compounds that could prevent activation of latent HIV was reported at a National Cooperative Discovery Grant (NCDDG)/AIDS meeting by P. Feorino, S. T. Butera, T. M. Folks, and R. F. Schinazi, Nov. 3-7, 1991. The assay system employed the OM-10.1 cell line, a unique chronically-infected promyelocytic clone which remains CD4+ until HIV-1 activation with tumor necrosis factor-α. The expression of CD4+ on the cell surface and the activity of reverse transcriptase are used as markers for quantitating viral expression. Alternatively, other HIV markers, such as protease activity, which are known to those of skill in the art can be used. OM-10.1 cells remain CD4+ until viral activation and respond to tumor necrosis factor induction, and therefore, these cultures are used to conveniently and rapidly examine pharmacologics for an ability to prevent CD4+ down modulation (decrease in expression of CD4+ on the cell surface) and HIV-1 expression.
A variety of compounds known to have antiviral properties against either acutely or chronically infected cells were evaluated for their ability to inhibit HIV expression in these OM-10.1 cells. […]

The test system of data set [2] is OM-10.1 cells. Conditions: NCDDG/AIDS poster, San Diego, Nov. 3-7 (1991); cited from earlier work.
The test system of data set [3] is TPA-mediated CD4 down regulation and HIV expression. Conditions: Hamamoto et al. 1989; cited from earlier work.

The structures appear in SMILES notation. Where two headings read alike, the source gives them in different places.

What is called IC50 is the concentration needed to halve the response being measured. As usually defined, the CC50 is the concentration giving 50% cytotoxicity. Turning to `COc1ccc2sc3c(c2c1)SCCNC3=O` [2,3-Dihydro-9-methoxy[1]benzothieno[2,3-f]-1,4-thiazepin-5(4H)-one], the IC50 in the data set with herpesvirus is 350 nM; in the data set on wild type HSV-1 (Human alphaherpesvirus 1, PRA), 450 nM; in the data set with wild type HSV-1 (PRA) it was 550 nM; in the data set with OM-10.1 cells [1], 210 nM. Further, the midpoint of cytotoxicity in the data set on Vero cells, the CC50, lay at 60000 nM.

For `Cc1cn([C@H]2C[C@H](F)[C@@H](CO)O2)c(=O)[nH]c1=O` [3'-fluoro-3'-deoxythymidine (FLT), 3'-fluoro-3'-deoxythymidine], the “inhibition of the activation of HIV-1 (in words)” value in the data set on OM-10.1 cells [2] is listed as “modest inhibitors of the activation of HIV-1”.

Regarding `CCCCCCCCCCCCCC(=O)O[C@@H]1[C@@H](C)[C@@]2(O)[C@@H](C=C(CO)C[C@]3(O)C(=O)C(C)=C[C@@H]23)[C@@H]2C(C)(C)[C@]12OC(C)=O` [12-O-tetradecanoylphorbol-13-acetate], in data set [3], the “effect on CD4 and viral expression in HIV-infected cells (in words)” value was “mediates CD4 down regulation and viral expression in HIV-infected cells”.

`CC(=O)N(O)CCCCCNC(=O)CCC(=O)N(O)CCCCCNC(=O)CCC(=O)N(O)CCCCCN` [desferrioxamine]: in the data set on OM-10.1 cells [2], the “inhibition of the activation of HIV-1 (in words)” value is on record as “modest inhibitors of the activation of HIV-1”.
